Patent US20090143279A1 (priority 2007, published 2009)
Where two headings read alike, the source gives them in different places.

Experiments:
[1] = tested on: mitochondrial membrane potential; assay type: cell-based, mouse; conditions: for ΔΨm (composite Z-score): normalized score vs mock-treated (DMSO) wells
reactive oxygen species = assay type: cell-based, mouse; conditions: for ROS (composite Z-score): normalized score vs mock-treated (DMSO) wells
OXPHOS gene expression = assay type: cell-based, mouse; conditions: for GE-HTS (composite Z-score): normalized score vs mock-treated (DMSO) wells
nuOXPHOS transcripts = assay type: cell-based, mouse; conditions: for nucOX (composite Z-score): normalized score vs mock-treated (DMSO) wells
mtOXPHOS transcripts = assay type: cell-based, mouse; conditions: for mitoOX (composite Z-score): normalized score vs mock-treated (DMSO) wells
cytochrome c = assay type: cell-based, mouse; conditions: for cyt c (composite Z-score): normalized score vs mock-treated (DMSO) wells
C2C12 myotubes = conditions: for Viability (composite Z-score): normalized score vs mock-treated (DMSO) wells
[2] = tested on: cellular dehydrogenase activity; conditions: for MTT (composite Z-score): normalized score vs mock-treated (DMSO) wells
[3] = 20 μM, composite Z-score vs DMSO
[4] = composite Z-score vs mock-treated (DMSO) wells, concentration of each compound in μM
[5] = composite Z-score vs DMSO wells, Conc 20 μM
[6] = normalized score (composite Z-score vs DMSO mock-treated wells), compound concentration (μM)
[7] = normalized composite Z-score vs mock-treated (DMSO) wells, Conc 20 μM
[8] = composite Z-score vs DMSO, Conc 20 μM

**Q.** How did the ΔΨm [1, 3] turn out when Cc1cc(O)ccc1Cl [chlorocresol] was run?
**A.** 0.528

**Q.** And the ROS (reactive oxygen species; [3])?
**A.** 0.102

**Q.** What about the GE-HTS (OXPHOS gene expression; [3]) of the same compound?
**A.** 0.206

**Q.** What about the nucOX (nuOXPHOS transcripts; [3]) of the same compound?
**A.** 0.611

**Q.** And the mitoOX (mtOXPHOS transcripts; [3])?
**A.** −0.728

**Q.** And the cyt c (cytochrome c; [3])?
**A.** 0.747

**Q.** And the Viability (C2C12 myotubes; [3])?
**A.** −0.414

**Q.** And the MTT [2, 3]?
**A.** −0.607

**Q.** With C=Cc1c(C)c2cc3nc(c4c5[n-]c(cc6nc(cc1[n-]2)C(C)=C6CC)c(C)c5C(=O)[C@@H]4C(=O)OC)[C@@H](CCC(=O)O)[C@@H]3C.[Mg+2] [chlorophyllide] as the compound, how does the ΔΨm [1, 4] read?
**A.** −0.783

**Q.** And the ROS (reactive oxygen species; [4])?
**A.** 1.042

**Q.** And the GE-HTS (OXPHOS gene expression; [4])?
**A.** 0.282

**Q.** And the nucOX (nuOXPHOS transcripts; [4])?
**A.** 0.303

**Q.** And the mitoOX (mtOXPHOS transcripts; [4])?
**A.** 0.224

**Q.** What about the cyt c (cytochrome c; [4]) of the same compound?
**A.** −1.157

**Q.** And the Viability (C2C12 myotubes; [4])?
**A.** −0.178

**Q.** What about the MTT [2, 4] of the same compound?
**A.** 0.307

**Q.** With NS(=O)(=O)c1cc2c(cc1Cl)N=CNS2(=O)=O [chlorothiazide] as the compound, how does the ΔΨm [1, 5] read?
**A.** −0.831

**Q.** And the ROS (reactive oxygen species; [5])?
**A.** 1.202

**Q.** What about the GE-HTS (OXPHOS gene expression; [5]) of the same compound?
**A.** −0.331

**Q.** What about the nucOX (nuOXPHOS transcripts; [5]) of the same compound?
**A.** −0.608

**Q.** And the mitoOX (mtOXPHOS transcripts; [5])?
**A.** 0.221

**Q.** What about the cyt c (cytochrome c) of the same compound?
**A.** 0.431

**Q.** What about the cyt c (cytochrome c; [5]) of the same compound?
**A.** 0.566

**Q.** And the Viability (C2C12 myotubes; [5])?
**A.** 0.116

**Q.** And the MTT [2, 5]?
**A.** −0.711

**Q.** Oc1c(Cl)cc(Cl)c2cccnc12 [chloroxine] was tested. Which ΔΨm [1, 5] did it give?
**A.** 1.120

**Q.** And the ROS (reactive oxygen species; [5])?
**A.** −2.934

**Q.** And the GE-HTS (OXPHOS gene expression; [5])?
**A.** −1.089

**Q.** What about the nucOX (nuOXPHOS transcripts; [5]) of the same compound?
**A.** −0.461

**Q.** And the mitoOX (mtOXPHOS transcripts; [5])?
**A.** −2.181

**Q.** And the cyt c (cytochrome c; [5])?
**A.** −0.800

**Q.** What about the Viability (C2C12 myotubes; [5]) of the same compound?
**A.** −1.392

**Q.** What about the MTT [2, 5] of the same compound?
**A.** −2.014

**Q.** For Cc1cc(O)cc(C)c1Cl [chloroxylenol], which ΔΨm [1, 3] is on record?
**A.** −0.917

**Q.** What about the ROS (reactive oxygen species; [3]) of the same compound?
**A.** 2.165

**Q.** And the GE-HTS (OXPHOS gene expression; [3])?
**A.** −0.811

**Q.** And the nucOX (nuOXPHOS transcripts; [3])?
**A.** −0.857

**Q.** What about the mitoOX (mtOXPHOS transcripts; [3]) of the same compound?
**A.** −0.614

**Q.** And the cyt c (cytochrome c; [3])?
**A.** 0.499

**Q.** And the Viability (C2C12 myotubes; [3])?
**A.** −0.639

**Q.** And the MTT [2, 3]?
**A.** −2.046

**Q.** What does the source list for OCC(O)COc1ccc(Cl)cc1 (stereo not drawn) [chlorphensin]?
**A.** ΔΨm [1, 6]: −0.419; ROS (reactive oxygen species; [6]): 0.692; GE-HTS (OXPHOS gene expression; [6]): −0.696; nucOX (nuOXPHOS transcripts; [6]): −0.613; mitoOX (mtOXPHOS transcripts; [6]): −0.766; cyt c (cytochrome c; [6]): −0.522; Viability (C2C12 myotubes; [6]): −1.132; MTT [2, 6]: −0.356

**Q.** Which ΔΨm [1] does the source give for NS(=O)(=O)c1cc(C2(O)NC(=O)c3ccccc32)ccc1Cl (stereo not drawn) [chlorthalidone] here?
**A.** −0.750

**Q.** What about the ΔΨm [1, 3] of the same compound?
**A.** −0.257

**Q.** And the ROS (reactive oxygen species)?
**A.** 1.047

**Q.** And the ROS (reactive oxygen species; [3])?
**A.** 1.655

**Q.** And the GE-HTS (OXPHOS gene expression)?
**A.** −0.236

**Q.** And the GE-HTS (OXPHOS gene expression; [3])?
**A.** 0.793

**Q.** What about the nucOX (nuOXPHOS transcripts) of the same compound?
**A.** −0.009

**Q.** What about the nucOX (nuOXPHOS transcripts; [3]) of the same compound?
**A.** 0.646

**Q.** What about the mitoOX (mtOXPHOS transcripts) of the same compound?
**A.** −0.641

**Q.** What about the mitoOX (mtOXPHOS transcripts; [3]) of the same compound?
**A.** 0.877

**Q.** What about the cyt c (cytochrome c) of the same compound?
**A.** 0.531

**Q.** What about the cyt c (cytochrome c; [3]) of the same compound?
**A.** 0.066

**Q.** What about the Viability (C2C12 myotubes) of the same compound?
**A.** 0.081

**Q.** What about the Viability (C2C12 myotubes; [3]) of the same compound?
**A.** 0.308

**Q.** And the MTT [2]?
**A.** −1.736

**Q.** What about the MTT [2, 3] of the same compound?
**A.** −1.134

**Q.** How did the ΔΨm [1, 7] turn out when C[C@H](CCC(=O)O)[C@H]1CC[C@H]2[C@@H]3CCC4CCCC[C@]4(C)[C@H]3C=C[C@]12C (stereo partly drawn) [chol-11-enic acid] was run?
**A.** −0.652

**Q.** What about the ROS (reactive oxygen species; [7]) of the same compound?
**A.** 0.737

**Q.** And the GE-HTS (OXPHOS gene expression; [7])?
**A.** −0.069

**Q.** And the nucOX (nuOXPHOS transcripts; [7])?
**A.** −0.195

**Q.** What about the mitoOX (mtOXPHOS transcripts; [7]) of the same compound?
**A.** 0.246

**Q.** And the cyt c (cytochrome c; [7])?
**A.** 0.383

**Q.** And the Viability (C2C12 myotubes; [7])?
**A.** −0.456

**Q.** And the MTT [2, 7]?
**A.** −1.164

**Q.** What does the source list for CC(C)CCC[C@@H](C)[C@H]1CC[C@H]2[C@@H]3C[C@@H](O)[C@@]4(O)C[C@@H](O)CC[C@]4(C)[C@H]3CC[C@]12C [cholestan-3beta,5alpha,6beta-triol]?
**A.** ΔΨm (composite Z-score) ([1]; Conc 20 μM): −0.575; ROS (composite Z-score) (reactive oxygen species; Conc 20 μM): 1.000; GE-HTS (composite Z-score) (OXPHOS gene expression; Conc 20 μM): 0.382; nucOX (composite Z-score) (nuOXPHOS transcripts; Conc 20 μM): 0.523; mitoOX (composite Z-score) (mtOXPHOS transcripts; Conc 20 μM): 0.074; cyt c (composite Z-score) (cytochrome c; Conc 20 μM): 0.815; Viability (composite Z-score) (C2C12 myotubes; Conc 20 μM): −0.869; MTT (composite Z-score) ([2]; Conc 20 μM): 0.120

**Q.** How did the ΔΨm [1, 8] turn out when CC(C)CCC[C@@H](C)[C@H]1CC[C@H]2[C@@H]3CCC4CCCC[C@]4(C)[C@H]3CC[C@]12C (stereo partly drawn) [cholestane] was run?
**A.** −0.945

**Q.** And the ROS (reactive oxygen species; [8])?
**A.** 0.155

**Q.** And the GE-HTS (OXPHOS gene expression; [8])?
**A.** −0.678

**Q.** And the nucOX (nuOXPHOS transcripts; [8])?
**A.** −0.651

**Q.** What about the mitoOX (mtOXPHOS transcripts; [8]) of the same compound?
**A.** −0.640

**Q.** What about the cyt c (cytochrome c; [8]) of the same compound?
**A.** 0.043

**Q.** And the Viability (C2C12 myotubes; [8])?
**A.** 0.941

**Q.** And the MTT [2, 8]?
**A.** −1.057

**Q.** Which “ΔΨm (composite Z-score)” value ([1]; Conc 20 μM) does the source give for CC(C)CCC[C@@H](C)C1CC[C@H]2[C@@H]3CCC4CC(=O)CC[C@]4(C)[C@H]3CC[C@]12C (stereo partly drawn) [cholestanone] here?
**A.** −1.065

**Q.** What about the “ROS (composite Z-score)” value (reactive oxygen species; Conc 20 μM) of the same compound?
**A.** 1.864

**Q.** What about the “GE-HTS (composite Z-score)” value (OXPHOS gene expression; Conc 20 μM) of the same compound?
**A.** 0.165

**Q.** What about the “nucOX (composite Z-score)” value (nuOXPHOS transcripts; Conc 20 μM) of the same compound?
**A.** 0.147

**Q.** And the “mitoOX (composite Z-score)” value (mtOXPHOS transcripts; Conc 20 μM)?
**A.** 0.214

**Q.** And the “cyt c (composite Z-score)” value (cytochrome c; Conc 20 μM)?
**A.** 0.272

**Q.** And the “Viability (composite Z-score)” value (C2C12 myotubes; Conc 20 μM)?
**A.** −0.208

**Q.** What about the “MTT (composite Z-score)” value ([2]; Conc 20 μM) of the same compound?
**A.** −2.192

**Q.** What does the source list for CC(=O)O[C@H]1CC[C@@]2(C)C(=CC[C@H]3[C@@H]4CC[C@H]([C@H](C)CCCC(C)C)[C@@]4(C)CC[C@@H]32)C1 [cholesteryl acetate]?
**A.** ΔΨm [1, 8]: −0.657; ROS (reactive oxygen species; [8]): 0.524; GE-HTS (OXPHOS gene expression; [8]): 0.228; nucOX (nuOXPHOS transcripts; [8]): 0.273; mitoOX (mtOXPHOS transcripts; [8]): 0.142; cyt c (cytochrome c; [8]): 0.097; Viability (C2C12 myotubes; [8]): −1.471; MTT [2, 8]: −2.138
